# Reference: the supplement of paper PMC4862054
# System: MDA-MB-453
# Test: drug sensitivity score (DSS), CellTox Green (DSS (AUC-based score)); higher = stronger drug effect (viability inhibition or cytotoxicity); extreme values may be limits of the assay
# Conditions: incubation time: 72 h
# How it was run: (§1)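 Compound was dispensed into 384-well plates at 5 concentrations in 10-fold steps spanning a 10,000-fold range chosen for each compound, and 20 µl of breast cancer cell suspension was added before 72 h of incubation. CellTox Green fluorescence was read at 485/520 nm, followed by CellTiter-Glo luminescence after 10 min at room temperature. Values on each plate were normalised to 0.1 % DMSO and a positive kill control. The drug sensitivity score came from the area under the fitted dose-response curve.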
row,Structure (SMILES),drug sensitivity score
1,CC1(C)NC(=O)N(c2ccc([N+](=O)[O-])c(C(F)(F)F)c2)C1=O [Nilutamide],0
2,CNCc1ccc(-c2[nH]c3cc(F)cc4c3c2CCNC4=O)cc1 [Rucaparib],0
3,C[C@]12CC[C@@H]3c4ccc(O)cc4C[C@@H](CCCCCCCCC[S+]([O-])CCCC(F)(F)C(F)(F)F)[C@H]3[C@@H]1CC[C@@H]2O (some centres not stated) [Fulvestrant],0
4,CC(C)Cn1cnc2c(N)nc3ccccc3c21 [Imiquimod],0
5,C#Cc1cccc(Nc2ncnc3cc(OCCOC)c(OCCOC)cc23)c1 [Erlotinib],0
6,O=P1(NCCCl)OCCCN1CCCl (configuration not stated) [Ifosfamide],0
7,Cn1c(Nc2ccc(C(F)(F)F)cc2)nc2cc(Oc3ccnc(-c4ncc(C(F)(F)F)[nH]4)c3)ccc21 [RAF265],0
8,Cc1ccc(C(=O)N(CCCN)[C@@H](c2oc3cc(Cl)ccc3c(=O)c2Cc2ccccc2)C(C)C)cc1,0
9,Cn1c(CCCC(=O)O)nc2cc(N(CCCl)CCCl)ccc21 [Bendamustine],0
10,O=C1CCC(N2C(=O)c3ccccc3C2=O)C(=O)N1 (configuration not stated) [Thalidomide],0
11,O=C(O)c1ccc(-c2c[nH]c3ncc(-c4ccccc4)cc23)cc1C1CCCC1,0
12,C=C(c1ccc(C(=O)O)cc1)c1cc2c(cc1C)C(C)(C)CCC2(C)C [Bexarotene],0

# System: CAL-85-1
# Test: as above
# Conditions: incubation time: 72 h
# How it was run: as §1
row,Structure (SMILES),drug sensitivity score
1,Oc1nc(-c2ccc(C(F)(F)F)cc2)nc2c1CSCC2 [XAV-939],0
2,NC(=O)Nc1cc(-c2cccc(F)c2)sc1C(=O)N[C@H]1CCCNC1 [AZD7762],12.9
3,N.N.[Cl][Pt][Cl] [Cisplatin],0
4,CN[C@@H]1C[C@H]2O[C@@](C)([C@@H]1OC)n1c3ccccc3c3c4c(c5c6ccccc6n2c5c31)C(=O)N[C@H]4O [UCN-01],20.2
5,C[C@@H](Oc1cc(-c2cnn(C3CCNCC3)c2)cnc1N)c1c(Cl)ccc(F)c1Cl [Crizotinib],0
6,CC1(C)NC(=O)N(c2ccc([N+](=O)[O-])c(C(F)(F)F)c2)C1=O [Nilutamide],0
7,CNCc1ccc(-c2[nH]c3cc(F)cc4c3c2CCNC4=O)cc1 [Rucaparib],0
8,C[C@]12CC[C@@H]3c4ccc(O)cc4C[C@@H](CCCCCCCCC[S+]([O-])CCCC(F)(F)C(F)(F)F)[C@H]3[C@@H]1CC[C@@H]2O (some centres not stated) [Fulvestrant],0
9,CC(C)Cn1cnc2c(N)nc3ccccc3c21 [Imiquimod],1.01
10,C#Cc1cccc(Nc2ncnc3cc(OCCOC)c(OCCOC)cc23)c1 [Erlotinib],6.41
11,O=P1(NCCCl)OCCCN1CCCl (configuration not stated) [Ifosfamide],0
12,Cn1c(Nc2ccc(C(F)(F)F)cc2)nc2cc(Oc3ccnc(-c4ncc(C(F)(F)F)[nH]4)c3)ccc21 [RAF265],4.33
13,Cc1ccc(C(=O)N(CCCN)[C@@H](c2oc3cc(Cl)ccc3c(=O)c2Cc2ccccc2)C(C)C)cc1,0
14,Cn1c(CCCC(=O)O)nc2cc(N(CCCl)CCCl)ccc21 [Bendamustine],0
15,O=C1CCC(N2C(=O)c3ccccc3C2=O)C(=O)N1 (configuration not stated) [Thalidomide],0
16,O=C(O)c1ccc(-c2c[nH]c3ncc(-c4ccccc4)cc23)cc1C1CCCC1,0
17,C=C(c1ccc(C(=O)O)cc1)c1cc2c(cc1C)C(C)(C)CCC2(C)C [Bexarotene],0

# System: HCC1937
# Test: as above
# Conditions: incubation time: 72 h
# How it was run: as §1
row,Structure (SMILES),drug sensitivity score
1,Oc1nc(-c2ccc(C(F)(F)F)cc2)nc2c1CSCC2 [XAV-939],0
2,NC(=O)Nc1cc(-c2cccc(F)c2)sc1C(=O)N[C@H]1CCCNC1 [AZD7762],0
3,N.N.[Cl][Pt][Cl] [Cisplatin],0
4,CN[C@@H]1C[C@H]2O[C@@](C)([C@@H]1OC)n1c3ccccc3c3c4c(c5c6ccccc6n2c5c31)C(=O)N[C@H]4O [UCN-01],0
5,C[C@@H](Oc1cc(-c2cnn(C3CCNCC3)c2)cnc1N)c1c(Cl)ccc(F)c1Cl [Crizotinib],0
6,CC1(C)NC(=O)N(c2ccc([N+](=O)[O-])c(C(F)(F)F)c2)C1=O [Nilutamide],0
7,CNCc1ccc(-c2[nH]c3cc(F)cc4c3c2CCNC4=O)cc1 [Rucaparib],0
8,C[C@]12CC[C@@H]3c4ccc(O)cc4C[C@@H](CCCCCCCCC[S+]([O-])CCCC(F)(F)C(F)(F)F)[C@H]3[C@@H]1CC[C@@H]2O (some centres not stated) [Fulvestrant],0
9,CC(C)Cn1cnc2c(N)nc3ccccc3c21 [Imiquimod],0
10,C#Cc1cccc(Nc2ncnc3cc(OCCOC)c(OCCOC)cc23)c1 [Erlotinib],0
11,Cn1c(Nc2ccc(C(F)(F)F)cc2)nc2cc(Oc3ccnc(-c4ncc(C(F)(F)F)[nH]4)c3)ccc21 [RAF265],0
12,Cc1ccc(C(=O)N(CCCN)[C@@H](c2oc3cc(Cl)ccc3c(=O)c2Cc2ccccc2)C(C)C)cc1,0
13,Cn1c(CCCC(=O)O)nc2cc(N(CCCl)CCCl)ccc21 [Bendamustine],0
14,O=C1CCC(N2C(=O)c3ccccc3C2=O)C(=O)N1 (configuration not stated) [Thalidomide],0
15,C=C(c1ccc(C(=O)O)cc1)c1cc2c(cc1C)C(C)(C)CCC2(C)C [Bexarotene],0

# System: MDA-MB-231
# Test: as above
# Conditions: incubation time: 72 h
# How it was run: as §1
row,Structure (SMILES),drug sensitivity score
1,Oc1nc(-c2ccc(C(F)(F)F)cc2)nc2c1CSCC2 [XAV-939],0
2,NC(=O)Nc1cc(-c2cccc(F)c2)sc1C(=O)N[C@H]1CCCNC1 [AZD7762],0.946
3,N.N.[Cl][Pt][Cl] [Cisplatin],0
